From patent US7709481B2, “Phenyl-1,2,4-oxadiazolone derivatives, processes for their preparation and methods for their use as pharmaceuticals” (Sanofi-Aventis, priority 2005, dated 2010) come the findings set out here.

One assay has as its target T1, human PPARdelta (Homo sapiens, UniProt Q03181).
T1 construct: human PPARdelta receptor (amino acids S139-Y441); expressed in transfected cells; plasmid pcDNA3
T1 sequence (Q03181 139-441): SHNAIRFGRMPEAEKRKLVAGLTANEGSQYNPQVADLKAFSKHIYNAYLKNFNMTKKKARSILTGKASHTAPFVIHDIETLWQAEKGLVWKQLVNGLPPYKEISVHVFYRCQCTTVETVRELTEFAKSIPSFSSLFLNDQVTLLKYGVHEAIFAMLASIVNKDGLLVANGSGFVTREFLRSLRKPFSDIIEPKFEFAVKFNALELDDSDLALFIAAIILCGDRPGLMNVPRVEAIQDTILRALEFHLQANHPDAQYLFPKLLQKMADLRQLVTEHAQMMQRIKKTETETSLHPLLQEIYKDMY
The assay is described as follows: Cellular PPARdelta assay (HEK PPARdelta reporter cell line, luciferase). It is filed as cell-based. The following applies: 24 h incubation. How it is done:
The raw data from the luminometer are transferred into a Microsoft Excel file. Dose-effect plots and EC50 values of PPAR agonists are calculated using the XL.Fit program as specified by the manufacturer (IDBS). […] Compounds of the invention of the formula I activate the PPARalpha receptor. Determination of EC50 values of PPAR agonists in the cellular PPARdelta assay The potency of substances which bind to human PPARdelta and activate it in an agonistic manner is analyzed using a stably transfected HEK cell line (HEK=human embryo kidney) which is referred to here as PPARdelta reporter cell line. In analogy to the assay described for PPARalpha, the PPARdelta reporter cell line also contains two genetic elements, a luciferase reporter element (pdeltaM-GAL4-Luc-Zeo) and a PPARdelta fusion protein (GR-GAL4-humanPPARdelta-LBD) which mediates expression of the luciferase reporter element depending on a PPARdelta ligand. The stably and constitutively expressed fusion protein GR-GAL4-humanPPARdelta-LBD binds in the cell nucleus of the PPARdelta reporter cell line via the GAL4 protein portion to the GAL4 DNA binding motifs 5′-upstream of the luciferase reporter element which is stably integrated in the genome of the cell line. There is only little expression of the luciferase reporter gene in the absence of a PPARdelta ligand if fatty acid-depleted fetal calf serum (cs-FCS) is used in the assay. PPARdelta ligands bind and activate the PPARdelta fusion protein and thereby stimulate expression of the luciferase reporter gene. The luciferase which is formed can be detected by means of chemiluminescence via an appropriate substrate.
The production of the stable PPARdelta reporter cell line is based on a stable HEK-cell clone which was stably transfected with a luciferase reporter element. This step was already described above in the section “construction of the PPARalpha reporter cell line”. In a second step, the PPARdelta fusion protein (GR-GAL4-humanPPARdelta-LBD was stably introduced into this cell clone. For this purpose, the cDNA coding for the N-terminal 76 amino acids of the glucocorticoid receptor (Accession # P04150) was linked to the cDNA section coding for amino acids 1-147 of the yeast transcription factor GAL4 (Accession # P04386). The cDNA of the ligand-binding domain of the human PPARdelta receptor (amino acids S139-Y441; Accession # L07592) was cloned in at the 3′-end of this GR-GAL4 construct. The fusion construct prepared in this way (GR-GAL4-humanPPARdelta-LBD) was recloned into the plasmid pcDNA3 (Invitrogen) in order to enable constitutive expression by the cytomegalovirus promoter. This plasmid was linearized with a restriction endonuclease and stably transfected into the previously described cell clone containing the luciferase reporter element. The resulting PPARdelta reporter cell line which contains a luciferase reporter element and constitutively expresses the PPARdelta fusion protein (GR-GAL4-human PPARdelta-LBD) was isolated by selection with zeocin (0.5 mg/ml) and G418 (0.5 mg/ml).
The activity of PPARdelta agonists is determined in a 3-day assay in exact analogy to the procedure already described for the PPARalpha reporter cell line except that the PPARdelta reporter cell line and a specific PPARdelta agonist was used as a standard to control test efficacy. PPARdelta EC50 values in the range from 0.3 nM to >10 μM were measured for the PPAR agonists of Examples 1 to 69 described in this application. Compounds of the invention of the formula I activate the PPARdelta receptor.

A further assay concerns the target T2, human PPARalpha (Homo sapiens, UniProt Q07869).
T2 construct: human PPARalpha receptor (amino acids S167-Y468); expressed in transfected cells; plasmid pcDNA3
T2 sequence (Q07869 167-468): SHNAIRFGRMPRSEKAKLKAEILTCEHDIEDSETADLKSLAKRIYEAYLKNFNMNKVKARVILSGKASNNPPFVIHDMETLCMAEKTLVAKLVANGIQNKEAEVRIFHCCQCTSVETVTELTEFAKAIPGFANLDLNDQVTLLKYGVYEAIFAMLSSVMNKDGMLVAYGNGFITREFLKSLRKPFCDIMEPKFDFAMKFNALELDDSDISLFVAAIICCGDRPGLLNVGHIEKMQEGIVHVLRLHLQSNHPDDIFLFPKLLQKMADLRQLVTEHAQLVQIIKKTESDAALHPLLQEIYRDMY
The assay is described as follows: Cellular PPARalpha assay (HEK PPARalpha reporter cell line, luciferase). It is filed as cell-based. The following applies: 24 h incubation. How it is done: The activity of the compounds was tested as follows. The potency of substances which bind to human PPARalpha and activate it in an agonistic manner is analyzed using a stably transfected HEK cell line (HEK=human embryo kidney) which is referred to here as PPARalpha reporter cell line. It contains two genetic elements, a luciferase reporter element (pdeltaM-GAL4-Luc-Zeo) and a PPARalpha fusion protein (GR-GAL4-humanPPARalpha-LBD) which mediates expression of the luciferase reporter element depending on a PPARalpha ligand. The stably and constitutively expressed fusion protein GR-GAL4-humanPPARalpha-LBD binds in the cell nucleus of the PPARalpha reporter cell line via the GAL4 protein portion to the GAL4 DNA binding motifs 5′-upstream of the luciferase reporter element which is stably integrated in the genome of the cell line. There is only weak expression of the luciferase reporter gene in the absence of a PPARalpha ligand if fatty acid-depleted fetal calf serum (cs-FCS) is used in the assay. PPARalpha ligands bind and activate the PPARalpha fusion protein and thereby stimulate the expression of the luciferase reporter gene. The luciferase which is formed can be detected by means of chemiluminescence via an appropriate substrate.
The PPARalpha reporter cell line was prepared in two stages. Firstly, the luciferase reporter element was constructed and stably transfected into HEK cells. For this purpose, five binding sites of the yeast transcription factor GAL4 (Accession # AF264724) were cloned in 5′-upstream of a 68 bp-long minimal MMTV promoter (Accession # V01175). The minimal MMTV promoter section contains a CCAAT box and a TATA element in order to enable efficient transcription by RNA polymerase II. The cloning and sequencing of the GAL4-MMTV construct took place in analogy to the description of Sambrook J. et. al. (Molecular cloning, Cold Spring Harbor Laboratory Press, 1989). Then the complete Photinus pyralis gene (Accession # M15077) was cloned in 3′-downstream of the GAL4-MMTV element. After sequencing, the luciferase reporter element consisting of five GAL4 binding sites, MMTV promoter and luciferase gene was recloned into a plasmid which confers zeocin resistance in order to obtain the plasmid pdeltaM-GAL4-Luc-Zeo. This vector was transfected into HEK cells in accordance with the statements in Ausubel, F. M. et al. (Current protocols in molecular biology, Vol. 1-3, John Wiley & Sons, Inc., 1995).
In a second step, the PPARalpha fusion protein (GR-GAL4-humanPPARalpha-LBD was introduced into the stable cell clone described. For this purpose, initially the cDNA coding for the N-terminal 76 amino acids of the glucocorticoid receptor (Accession # P04150) was linked to the cDNA section coding for amino acids 1-147 of the yeast transcription factor GAL4 (Accession # P04386). The cDNA of the ligand-binding domain of the human PPARalpha receptor (amino acids S167-Y468; Accession # S74349) was cloned in at the 3′-end of this GR-GAL4 construct. The fusion construct prepared in this way (GR-GAL4-humanPPARalpha-LBD) was recloned into the plasmid pcDNA3 (Invitrogen) in order to enable constitutive expression therein by the cytomegalovirus promoter. This plasmid was linearized with a restriction endonuclease and stably transfected into the previously described cell clone containing the luciferase reporter element. The finished PPARalpha reporter cell line which contains a luciferase reporter element and constitutively expresses the PPARalpha fusion protein (GR-GAL4-human PPARalpha-LBD) was isolated by selection with zeocin (0.5 mg/ml) and G418 (0.5 mg/ml).
The activity of PPARalpha agonists is determined in a 3-day assay which is described below: […]

The term EC50 denotes the midpoint of the concentration-response curve. As for `Cc1nc(C2CCCCC2)sc1COc1ccc(-c2noc(=O)[nH]2)c(Cl)c1` [Example 5, 3-[2-Chloro-4-(2-cyclohexyl-4-methyl-thiazol-5-ylmethoxy)-phenyl]-4H-[1,2,4]oxadiazol-5-one], the EC50 was found to be 0.23 µM at human PPARdelta and 1.26 µM on human PPARalpha.
For `COCc1nc(CCC2CCCCC2)sc1COc1ccc(-c2noc(=O)[nH]2)c(Cl)c1` [Example 10, 3-{2-Chloro-4-[2-(2-cyclohexyl-ethyl)-4-methoxymethyl-thiazol-5-ylmethoxy]-phenyl}-4H-[1,2,4]oxadiazol-5-one], in that order: 0.07 µM and 0.53 µM.
For `COCc1nc(C2CCCCCC2)sc1COc1ccc(-c2noc(=O)[nH]2)c(Cl)c1` [Example 11, 3-[2-Chloro-4-(2-cycloheptyl-4-methoxymethyl-thiazol-5-ylmethoxy)-phenyl]-4H-[1,2,4]oxadiazol-5-one], in that order: 0.13 µM and 1.25 µM.
For `COCc1nc([C@H]2CC[C@H](c3ccc(Cl)cc3)CC2)sc1COc1ccc(-c2noc(=O)[nH]2)c(Cl)c1` [Example 12, Trans-3-(2-Chloro-4-{2-[4-(4-chloro-phenyl)-cyclohexyl]-4-methoxymethyl-thiazol-5-ylmethoxy}-phenyl)-4H-[1,2,4]oxadiazol-5-one], in that order: 0.01 µM and 0.8 µM.
For the compound `COCc1nc([C@H]2CC[C@H](C(F)(F)F)CC2)oc1COc1ccc(-c2noc(=O)[nH]2)c(Cl)c1` [Example 18a, Trans-3-{2-Chloro-4-[4-methoxymethyl-2-(4-trifluoromethyl-cyclohexyl)-oxazol-5-ylmethoxy]-phenyl}-4H-[1,2,4]oxadiazol-5-one], the EC50 was 0.04 µM at human PPARdelta and 2.5 µM at human PPARalpha.
For `O=c1[nH]c(-c2ccc(OCc3sc(-c4ccc(C(F)(F)F)nc4)nc3CCCOCc3ccccc3)cc2Cl)no1` [Example 25, 3-{4-[4-(3-Benzyloxy-propyl)-2-(6-trifluoromethyl-pyridin-3-yl)-thiazol-5-ylmethoxy]-2-chloro-phenyl}-4H-[1,2,4]oxadiazol-5-one], in that order: 0.0003 µM and 0.075 µM.
For `Cc1nc(-c2ccc(C(F)(F)F)nc2)sc1C(OCc1ccc(-c2noc(=O)[nH]2)c(F)c1)C(F)(F)F` (stereo not shown) [Example 31, 3-(2-Fluoro-4-{2,2,2-trifluoro-1-[4-methyl-2-(6-trifluoromethyl-pyridin-3-yl)-thiazol-5-yl]-ethoxymethyl}-phenyl)-4H-[1,2,4]oxadiazol-5-one], in that order: 0.014 µM and > 33 µM.
Regarding `Cc1nc(-c2ccc(C(F)(F)F)nc2)sc1C(OCc1ccc(-c2noc(=O)[nH]2)c(Cl)n1)C(F)(F)F` (stereo not shown) [Example 37, 3-(2-Chloro-6-{2,2,2-trifluoro-1-[4-methyl-2-(6-trifluoromethyl-pyridin-3-yl)-thiazol-5-yl]-ethoxymethyl}-pyridin-3-yl)-4H-[1,2,4]oxadiazol-5-one], the half-maximal effective concentration (EC50) on human PPARdelta is 0.059 µM; at human PPARalpha, > 33 µM.
In the same order, the values of `Cc1nc([C@H]2CC[C@H](C(F)(F)F)CC2)sc1C(OCc1ccc(-c2noc(=O)[nH]2)c(C2CC2)c1)C(F)(F)F` (stereo partly drawn) [Example 39, 3-(2-Cyclopropyl-4-{2,2,2-trifluoro-1-[4-methyl-2-(trans,1,4-trifluoromethyl-cyclohexyl)-thiazol-5-yl]-ethoxymethyl}-phenyl)-4H-[1,2,4]oxadiazol-5-one] are 0.086 µM and 5.44 µM.
In the same order, the values of `Cc1nc(-c2cccc3cccnc23)sc1COc1ccc(-c2nc(=O)o[nH]2)c(Cl)c1` [Example 46, 3-[2-Chloro-4-(4-methyl-2-quinolin-8-yl-thiazol-5-ylmethoxy)-phenyl]-2H-[1,2,4]oxadiazol-5-one] are 7.39 µM and 4.33 µM.
In the same order, the values of `CCC(Oc1cc(OC)c(-c2noc(=O)[nH]2)cc1F)c1sc([C@H]2CC[C@H](C(F)(F)F)CC2)nc1C` (stereo partly drawn) [Example 51, 3-(5-Fluoro-2-methoxy-4-{1-[4-methyl-2-(trans-1,4-trifluoromethyl-cyclohexyl)-thiazol-5-yl]-propoxy}-phenyl)-4H-1,2,4-oxadiazol-5-one] are 0.007 µM and 0.335 µM.
